In EP1206248B1, “CONTROLLED-RELEASE SEDATIVE-HYPNOTIC COMPOSITIONS AND METHODS RELATED THERETO” (Neurocrine Biosciences, Inc., priority 1999, dated 2001):
Values after ≈ are worked out from the molar mass of the structure shown.

Columns and labels:
[1] = log D partition coefficient
[2] = Plasma half-life and pharmacokinetic parameters from plasma concentration-time profiles; type: in vivo; details: human
Text: The mean plasma half-life of a sedative-hypnotic compound may be determined using well known techniques. Terminal half-life may be determined using standard pharmacokinetic calculations, such as those presented by Rolland and Tozer (Clinical Pharmacokinetics Concepts and Applications, 3rd. Ed., Chap. 3, 1995). In addition, software is commercially available which performs this calculation, such as the product sold under the tradename "WinNinlin™" (Prof. Ver.1.5). […]
To assess the plasma concentration time profiles, plasma concentration, Tmax and Tmin may be determined using well known techniques. […] Any suitable assay may be used to determine plasma levels, such as ELISA, RIA, or chromatography (e.g., gas-liquid chromatography or high pressure liquid chromatography) linked to any suitable detection system such as UV, fluorescence, mass spectrometry or an electrochemical system). […]
In this experiment, commercially available plasma profiling sofltware (GastroPlus™) (Simulations Plus Inc., CA) was used to simulate the effects of varying controlled release profiles and pharmacokinetic parameters based on in vivo plasma concentrations of NBI-34060 as measured in 12-healty male human subjects. […]

Compound: CC(=O)N(C)c1cccc(-c2ccnc3c(C(=O)c4cccs4)cnn23)c1 [NBI-34060, N-methyl-N-(3-{3-[2-thienylcarbonyl]-pyrazolo-[1,5-a]-pyrimidin-7-yl}-phenyl)acetamide]
- logD [1]: 1.73
- resulting pH (Solubility in water; pH of the aqueous solution at approximately 20-30 µg/ml): approximately 8.0
- solubility (Solubility in water; water, pH 8, water): 20 to 30 µg/mL (≈ 53.1 to 79.7 µM)
- half-life ([2]; plasma half-life of NBI-34060): 1.3 h
- Vd ([2]; male, one-compartment pharmacokinetic model, assuming 70 kg subject weight, read-out: volume of distribution (Vd)): 2.27 L/kg
